“And” between values parts separate entries of the source, which are not always exact repeats. Equal entries are not always repeated.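 Method: 48-hour compound exposure of cells in 96-well plates, five concentrations, linear interpolation of endpoints. Abbreviation: GI50, concentration required for 50% inhibition of growth. TGI: total growth inhibition.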
What was measured:
Experiment in all cases: NCI tumour cell line growth inhibition, 48 h
HCT-116 colon = tested on: HCT-116 colon
SNB-78 CNS = tested on: SNB-78 CNS
SNB-75 CNS = tested on: SNB-75 CNS
MDA-MB-231 breast = tested on: MDA-MB-231 breast
SK-MEL-2 melanoma = tested on: SK-MEL-2 melanoma
P388 leukemia = tested on: P388 leukemia
BT-549 breast = tested on: BT-549 breast
KM12 colon = tested on: KM12 colon
OVCAR-8 ovarian = tested on: OVCAR-8 ovarian
UO-31 renal = tested on: UO-31 renal
SF-268 CNS = tested on: SF-268 CNS
HCT-15 colon = tested on: HCT-15 colon
K-562 leukemia = tested on: K-562 leukemia
UACC-257 melanoma = tested on: UACC-257 melanoma
HOP-62 NSCLC = tested on: HOP-62 NSCLC
OVCAR-4 ovarian = tested on: OVCAR-4 ovarian
TK-10 renal = tested on: TK-10 renal
IGROV1 ovarian = tested on: IGROV1 ovarian
A498 renal = tested on: A498 renal
MOLT-4 leukemia = tested on: MOLT-4 leukemia
DU-145 prostate = tested on: DU-145 prostate
UACC-62 melanoma = tested on: UACC-62 melanoma
HCC-2998 colon = tested on: HCC-2998 colon
SK-MEL-28 melanoma = tested on: SK-MEL-28 melanoma
NCI-H23 lung = tested on: NCI-H23 lung
NCI-H460 lung = tested on: NCI-H460 lung
T-47D breast = tested on: T-47D breast
A549 NSCLC = tested on: A549 NSCLC
U251 CNS = tested on: U251 CNS
COLO 205 colon = tested on: COLO 205 colon
CCRF-CEM leukemia = tested on: CCRF-CEM leukemia
KM20L2 colon = tested on: KM20L2 colon

In the case of `Nc1ncnc2c1ncn2C1OC(CO)C(O)C1O` (stereo not drawn), the GI50 (HCT-116 colon) was 7.58 µM, the TGI (HCT-116 colon) was over 450 µM and the TGI (SNB-78 CNS) was over 450 µM. The GI50 (SNB-75 CNS) was 11.6 µM, the TGI (SNB-75 CNS) was > 100 µM and 331 µM and 38.2 µM and the GI50 (MDA-MB-231 breast) was 5.91 µM. The TGI (MDA-MB-231 breast) was > 100 µM and 24.6 µM, the TGI (SK-MEL-2 melanoma) was > 100 µM and > 450 µM and 75.7 µM and the TGI (P388 leukemia) was 111 µM. It also gave a GI50 (BT-549 breast) of 7.69 µM, a TGI (BT-549 breast) of 59 µM and a TGI (KM12 colon) of over 450 µM. The GI50 (OVCAR-8 ovarian) was 32.9 µM and 79.3 µM and 12.6 µM, the TGI (OVCAR-8 ovarian) was over 401 µM and the TGI (UO-31 renal) was over 450 µM. The GI50 (SF-268 CNS) was 38.7 µM, the TGI (SF-268 CNS) was over 450 µM and the TGI (HCT-15 colon) was > 100 µM and > 450 µM and 62 µM. It also gave a TGI (K-562 leukemia) of over 450 µM, a GI50 (UACC-257 melanoma) of over 450 µM and a TGI (UACC-257 melanoma) of over 450 µM. The GI50 (HOP-62 NSCLC) was 11.7 µM, the TGI (HOP-62 NSCLC) was > 100 µM and 184 µM and 47.9 µM and the TGI (OVCAR-4 ovarian) was over 450 µM. It also gave a GI50 (TK-10 renal) of 41.1 µM, a TGI (TK-10 renal) of over 100 µM and a GI50 (IGROV1 ovarian) of over 450 µM. For the same compound, the TGI (IGROV1 ovarian) was over 450 µM, the GI50 (A498 renal) was 93.2 µM and 43.5 µM and 55.1 µM and the TGI (A498 renal) was over 100 µM. For the same compound, the GI50 (MOLT-4 leukemia) was > 100 µM and 201 µM, the TGI (MOLT-4 leukemia) was over 450 µM and the GI50 (DU-145 prostate) was 3.8 µM. The TGI (DU-145 prostate) was 82.4 µM and 31.4 µM, the GI50 (UACC-62 melanoma) was > 100 µM and 247 µM and 27.2 µM and the TGI (UACC-62 melanoma) was over 450 µM. For the same compound, the GI50 (HCC-2998 colon) was 1.61 µM, the GI50 (SK-MEL-28 melanoma) was > 100 µM and 313 µM and 62.3 µM and the TGI (SK-MEL-28 melanoma) was over 450 µM. For the same compound, the TGI (NCI-H23 lung) was > 100 µM and > 450 µM and 77.3 µM, the GI50 (NCI-H460 lung) was 4.23 µM and the TGI (NCI-H460 lung) was 181 µM and 32.2 µM. The GI50 (T-47D breast) was 0.738 µM, the TGI (T-47D breast) was > 100 µM and 13.5 µM and the GI50 (A549 NSCLC) was 22.3 µM. For the same compound, the TGI (A549 NSCLC) was over 388 µM, the GI50 (U251 CNS) was > 100 µM and 273 µM and 30.6 µM and the TGI (U251 CNS) was over 450 µM. The GI50 (COLO 205 colon) was > 100 µM and > 450 µM and 60.3 µM, the TGI (COLO 205 colon) was over 450 µM and the GI50 (CCRF-CEM leukemia) was over 100 µM. It also gave a TGI (CCRF-CEM leukemia) of over 284 µM and a TGI (KM20L2 colon) of over 450 µM.

— PubChem BioAssay (NCI)
